Among the data in ChEMBL document CHEMBL3046269, “The repelling effect of plant secondary metabolites on water voles, Arvicola amphibius” (2013) are inhibition, Time and Activity values, retold here.

The source made the active and inactive calls. The calls are words filed in the database; no cut-off is given here.

Assay [1] has as its system Arvicola amphibius. In words: Herbivore repellent activity against adult Arvicola amphibius assessed as decrease in frequency of entry of test box with apple pieces by T-maze test. Format: functional, organism-based.
The subject of assay [2] is Arvicola amphibius. In words: Herbivore repellent activity against adult Arvicola amphibius assessed as time required to enter the test box with apple pieces for first time by T-maze test (reference value: 268.50 +/-417.85 secs). Format: functional.
Assay [3] relates to Arvicola amphibius. Description: Herbivore repellent activity against adult Arvicola amphibius assessed as duration of stay within test box with apple pieces by T-maze test (reference value: 85.30 +/-13.79%). Format: functional.
Assay [4] has as its system Arvicola amphibius. Description: Herbivore repellent activity against adult Arvicola amphibius assessed as duration of stay within test box with apple pieces by T-maze test (reference value: 59.20 +/-31.75%). Format: functional.
In assay [5] the test system is Arvicola amphibius. In words: Herbivore repellent activity against adult Arvicola amphibius assessed as time required to enter the test box with apple pieces for first time by T-maze test (reference value: 438.43 +/-312.37 secs). Format: functional.
Assay [6] relates to Arvicola amphibius. Description: Herbivore repellent activity against adult Arvicola amphibius assessed as duration of stay within test box with apple pieces by T-maze test (reference value: 56.72 +/-13.89%). Format: functional.
The subject of assay [7] is Arvicola amphibius. In words: Herbivore repellent activity against adult Arvicola amphibius assessed as time required to enter the test box with apple pieces for first time by T-maze test (reference value: 380.25 +/-321.70 secs). Format: functional.
The test system of assay [8] is Arvicola amphibius. In words: Herbivore repellent activity against adult Arvicola amphibius assessed as duration of stay within test box with apple pieces by T-maze test (reference value: 59.19 +/-19.83%). Format: functional.
Assay [9] has as its system Arvicola amphibius. In words: Herbivore repellent activity against adult Arvicola amphibius assessed as time required to enter the test box with apple pieces for first time by T-maze test (reference value: 277.50 +/-166.07 secs). Format: functional.
Assay [10] deals with Arvicola amphibius. Description: Herbivore repellent activity against adult Arvicola amphibius assessed as time required to enter the test box with apple pieces for first time by T-maze test (reference value: 240.75 +/-184.07 secs). Format: functional.
Assay [11] deals with Arvicola amphibius. Description: Herbivore repellent activity against adult Arvicola amphibius assessed as duration of stay within test box with apple pieces by T-maze test (reference value: 75.53 +/-16.57%). Format: functional.

For the compound `CCCCCCCCCC(C)=O` [METHYL NONYL KETONE], the inhibition entry in the assay with Arvicola amphibius [1] is “Active”. For the same compound, in the assay on Arvicola amphibius [2], the Time came out at 888.38 s. Further, in the assay on Arvicola amphibius [3], the Activity is reported as 14.7%.

Take `CCCS` [1-PROPANETHIOL]: the Activity with Arvicola amphibius [4] was determined as 40.8%. Besides, in the assay with Arvicola amphibius [5], the Time was found to be 996.29 s.

For the compound `CCCCCCCCC(=O)O` [NONANOATE], the Activity in the assay on Arvicola amphibius [6] came out at 43.28%. For the same compound, the Time in the assay on Arvicola amphibius [7] is 507.75 s.

Regarding `CC(C)=CCC/C(C)=C/CO` [GERANIOL], in the assay with Arvicola amphibius [8], the Activity is 40.8%. Further, the Time with Arvicola amphibius [9] came out at 326.38 s.

In the case of `CCCCC(=O)O` [VALERIC ACID], the Time with Arvicola amphibius [10] is reported as 769.13 s. Further, in the assay with Arvicola amphibius [11], the Activity was 24.47%.
